Results: PubChem BioAssay (NCI)
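1) Cells in 96-well plates. 2) Compound, 48 h, 5 concentrations. 3) Linear interpolation between surrounding doses. 4) Unreached endpoint = highest concentration. Here, GI50 denotes the concentration required for 50% inhibition of growth. At the TGI there is no net growth.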

Assays:
Experiment in all cases: NCI-60 cell line screen, 48 h
NCI-H226 lung = system: NCI-H226 lung
EKVX NSCLC = system: EKVX NSCLC
CAKI-1 renal = system: CAKI-1 renal
M14 melanoma = system: M14 melanoma
RXF 393 renal = system: RXF 393 renal
NCI-H522 lung = system: NCI-H522 lung
NCI-H460 lung = system: NCI-H460 lung
SF-539 CNS = system: SF-539 CNS
HT29 colon = system: HT29 colon
HL-60(TB) leukemia = system: HL-60(TB) leukemia

SMILES | TGI (NCI-H226 lung) [µM] | TGI (EKVX NSCLC) [µM] | TGI (CAKI-1 renal) [µM] | TGI (M14 melanoma) [µM] | TGI (RXF 393 renal) [µM] | TGI (NCI-H522 lung) [µM] | TGI (NCI-H460 lung) [µM] | TGI (SF-539 CNS) [µM] | TGI (HT29 colon) [µM] | TGI (HL-60(TB) leukemia) [µM] | GI50 (NCI-H226 lung) [µM] | GI50 (EKVX NSCLC) [µM] | GI50 (CAKI-1 renal) [µM] | GI50 (M14 melanoma) [µM] | GI50 (RXF 393 renal) [µM] | GI50 (NCI-H522 lung) [µM] | GI50 (NCI-H460 lung) [µM] | GI50 (SF-539 CNS) [µM] | GI50 (HT29 colon) [µM] | GI50 (HL-60(TB) leukemia) [µM]
Oc1[nH]c2ccccc2c1C1=Nc2ccccc2/C1=N\OCCOC1OCC(O)C(O)C1O (stereo not given) | > 100 | > 100 | > 100 | > 100 | > 100 | > 100 | > 100 | > 100 | > 100 | > 100 |  |  |  |  |  |  |  |  |  | 
O=c1[nH]nc(-c2ccccc2)n1/N=C/c1cccc([N+](=O)[O-])c1 | > 100 | > 100 | > 100 | > 100 | > 100 | > 100 | > 100 | > 100 | > 100 | > 100 |  |  |  |  |  |  |  |  |  | 
Nc1nc2ccc(Sc3ccc4nc(N)[nH]c(=O)c4c3)cc2c(=O)[nH]1 | 81.9 | > 100 | > 100 | > 100 | > 100 | > 100 | > 100 | > 100 | > 100 | > 100 |  |  |  |  |  |  |  |  |  | 
C[C@@H](C[C@H]1OC(C)(C)O[C@@H]1C(C)(C)O)[C@H]1CC=C2[C@]3(C)[C@H](O)C[C@H]4C(C)(C)[C@H](O)CC[C@]4(C)[C@H]3CC[C@]21C | 20.6 | 21.9 | 19.5 | 17.6 | 12.1 | 20.9 | 14.2 | 17.2 | 8.23 | 7.88 |  |  |  |  |  |  |  |  |  | 
COC(=O)C1Cc2c(OC)ccc(OC)c2C(O)C1C(=O)OC (stereo not given) | > 100 | > 100 | > 100 | > 100 | > 100 | > 100 | > 100 | > 100 | > 100 | > 100 |  |  |  |  |  |  |  |  |  | 
Nc1[nH]c(=O)nc2snnc12 | > 100 | > 100 | > 28.8 | > 100 | > 26.8 | > 100 | > 100 | > 100 | > 100 | > 100 |  |  |  |  |  |  |  |  |  | 
CC12CC(=O)Nc3ccccc3N1C(c1ccccc1)=NO2 (stereo not given) | > 100 | > 100 | > 100 | > 100 | > 100 | > 100 | > 100 | > 100 | > 100 | > 100 |  |  |  |  |  |  |  |  |  | 
O=C1NC(Nc2ccccc2)=N/C1=C\c1c(Cl)cccc1Cl | 41.6 | 47.3 | > 100 | 83.5 | 45.3 | > 100 | > 100 | 53.2 | > 100 | > 100 |  |  |  |  |  |  |  |  |  | 
Cc1cccc2[nH]c3c(c(O)cc4[nH]c5cccc(C)c5c(=O)c43)c(=O)c12 | > 10 | > 10 | > 10 | > 10 | > 10 | > 10 | > 10 | > 10 | > 10 | > 10 |  |  |  |  |  |  |  |  |  | 
O=[N+]([O-])c1ccc(C2ON=C(c3ccccc3)N2C23CC4CC(CC(C4)C2)C3)cc1 (stereo not given) | > 10 | > 10 | > 10 | > 10 | > 10 | > 10 | > 10 | > 10 | > 10 | > 10 |  |  |  |  |  |  |  |  |  | 
COc1c2c(nc3ccccc13)-c1cc(C(CC(=O)OC(C)(C)C)C(=O)OC(C)C)c(CO)c(=O)n1C2 (stereo not given) | > 100 | > 100 | > 100 | > 100 | > 100 | > 100 | > 86.1 | 98.4 | > 100 | > 100 |  |  |  |  |  |  |  |  |  | 
O=c1nc2ccc([N+](=O)[O-])cc2[n+]([O-])[nH]1 | > 100 | > 100 | > 100 | > 100 | > 100 | > 100 | > 100 | > 100 | > 100 | > 100 |  |  |  |  |  |  |  |  |  | 
Cc1cc(N/N=C/c2nc(-c3ccc(Cl)cc3)oc2C)c2cc(Br)ccc2n1 | 50.4 | 28.1 | 4.71 | 4.55 | 17.2 | 4.51 | 3.67 | 3.69 | 5.99 | 5.44 | 17.4 | 14.4 | 2.04 | 2.02 | 4.1 | 2.02 | 1.88 | 1.9 | 2.31 | 2.2
CCOC(=O)c1sc2c(c1OC(=O)c1cc(OC)c(OC)c(OC)c1)c(=O)n(-c1ccccc1)c(=S)n2-c1ccccc1 | > 100 | > 100 | > 100 | > 100 | > 100 | 63.1 | > 100 | > 100 | > 100 | > 100 |  |  |  |  |  |  |  |  |  | 
COc1cc(C2c3cc4c(cc3OC(NNS(=O)(=O)c3ccc(C)cc3)C2C)OCO4)cc(OC)c1OC (stereo not given) | 13.2 | 18.3 | 23.9 | 14.5 | 23.8 | 4.87 | 12.4 | 3.96 | 5.38 | 6.59 |  |  |  |  |  |  |  |  |  | 
O=Cc1ccc(OC[C@H]2COC(=O)N2)cc1 | > 100 | > 100 | > 100 | > 100 | > 100 | > 100 | > 100 | > 100 | > 100 | > 100 |  |  |  |  |  |  |  |  |  | 
Cc1cn(-c2cccc(NC(=O)c3ccc(C)c(Nc4nccc(-c5cccnc5)n4)c3)c2)cn1 | 3.32 | 6 | 3.05 | 5.47 | 3.03 | 3.07 | 4.05 | 2.97 | 3.74 | 19.8 | 1.59 | 2.16 | 1.6 | 2.08 | 1.62 | 1.44 | 1.97 | 1.45 | 1.98 | 4.61

SMILES | TGI (NCI-H226 lung) [µM] | TGI (EKVX NSCLC) [µM] | TGI (CAKI-1 renal) [µM] | TGI (M14 melanoma) [µM] | TGI (RXF 393 renal) [µM] | TGI (NCI-H522 lung) [µM] | TGI (NCI-H460 lung) [µM] | TGI (SF-539 CNS) [µM] | TGI (HT29 colon) [µM] | TGI (HL-60(TB) leukemia) [µM] | GI50 (NCI-H226 lung) [µM] | GI50 (EKVX NSCLC) [µM] | GI50 (CAKI-1 renal) [µM] | GI50 (M14 melanoma) [µM] | GI50 (RXF 393 renal) [µM] | GI50 (NCI-H522 lung) [µM] | GI50 (NCI-H460 lung) [µM] | GI50 (SF-539 CNS) [µM] | GI50 (HT29 colon) [µM] | GI50 (HL-60(TB) leukemia) [µM]
CCC(C)C(N)C(=O)N/N=C\c1c2c(nc3ccccc13)-c1cc3c(c(=O)n1C2)COC(=O)[C@]3(O)CC (stereo not given in full) | 1.66 | > 100 | 65.5 | 1.6 | 0.218 | 3.23 | 1.5 | 0.0223 | > 100 | 0.68 |  |  |  |  |  |  |  |  |  | 
O=C(Cn1cc(Br)c(=O)[nH]c1=O)c1ccc(-c2ccccc2)cc1 | > 100 | > 100 | > 41.8 | > 24.1 | > 100 | > 13.9 | > 48 | > 19.8 | > 100 | > 35.1 |  |  |  |  |  |  |  |  |  | 
Cc1ccc(-c2c(-c3ccccc3)[nH]c(C)c2C(=O)ONC(=O)c2ccccc2)cc1 | 19.1 | > 50.3 | 5.48 | 18 | 5.83 | 6.48 | 5.21 | 8.06 | > 42.4 | 2.02 |  |  |  |  |  |  |  |  |  | 
COc1cc(/C=C2\C[C@H]3[C@@H]4CCC5=CC(=O)CC[C@]5(C)[C@H]4CC[C@]3(C)C2=O)cc(OC)c1OC | > 100 | > 100 | > 65.2 | > 42.5 | > 100 | > 100 | > 100 | > 100 | > 100 | 7.55 |  |  |  |  |  |  |  |  |  | 
c1ccc2cc3c(NC4=NCCO4)cccc3cc2c1 | > 100 | > 100 | > 100 | > 100 | > 100 | > 100 | > 100 | > 100 | 80.4 | 52.1 |  |  |  |  |  |  |  |  |  | 
Cc1cccc2oc3c(c(=O)c12)CC(O)C(C)(C)O3 (stereo not given) | > 100 | > 100 | > 100 | > 100 | > 100 | 87.5 | > 100 | > 100 | > 100 | 48.3 |  |  |  |  |  |  |  |  |  | 
C[C@H]1C2Cc3cc(O)ccc3[C@@]1(C)CCN2CCc1ccc(N)cc1 | > 100 | > 100 | > 100 | 32.4 | > 100 | 36.2 | > 100 | 31.3 | 31.9 | > 100 |  |  |  |  |  |  |  |  |  | 
N#[N+]c1c([O-])c2ccccc2c2ccccc12 | 89.3 | 72.8 | > 100 | > 100 | 45 | 85 | > 100 | 91 | > 100 | > 100 |  |  |  |  |  |  |  |  |  | 
COC(=O)c1c(CC(Cc2ccc3c(c2)CCCC3)C(=O)O)ccc2c1CCCC2 (stereo not given) | > 100 | 68.6 | > 100 | > 100 | > 100 | 34.1 | 47.9 | 44.9 | > 100 | 46.5 |  |  |  |  |  |  |  |  |  | 
CC1(C)CC(=O)c2c(nc3c(ccc4ccccc43)c2-c2ccc(NC(=O)CCC(=O)Nc3ccc(-c4c5c(nc6c4ccc4ccccc46)CC(C)(C)CC5=O)cc3)cc2)C1 | > 100 | > 100 | > 100 | > 100 | > 100 | > 100 | > 100 | > 100 | > 100 | > 100 |  |  |  |  |  |  |  |  |  | 
C=C1C[C@@H](O)[C@@H](Br)C(C)(C)[C@@]12C=CC(=O)CC2 | > 26.3 | > 51.8 | > 100 | > 100 | > 100 | > 100 | > 100 | > 100 | > 100 | > 100 |  |  |  |  |  |  |  |  |  | 
Clc1ccc(-c2cc(-c3cc4cc(Br)ccc4nc3Cl)on2)cc1 | 27.4 | 36.2 | > 50 | 37.9 | 43.9 | 21.8 | 22.6 | 17.5 | > 50 | 4.89 |  |  |  |  |  |  |  |  |  | 
FC(F)(F)c1ccc2c(c1)nc1n2C(c2c(Cl)cccc2Cl)SC1 (stereo not given) | 58.2 | 32.3 | 35 | 36.9 | 28.7 | 51.9 | 35 | 43 | 31.9 | 67.5 |  |  |  |  |  |  |  |  |  | 
N=c1oc2ccccc2cc1-c1nc2ccccc2[nH]1 | > 100 | 41.1 | > 100 | > 100 | > 100 | 4.57 | > 100 | > 100 | > 100 | 87 |  |  |  |  |  |  |  |  |  | 
O=[N+]([O-])C(/C(Cl)=C(\Cl)Br)=C(/Cl)SCc1ccccc1 | 36.7 | 14.5 | 3.78 | 9.15 | 4.85 | 4.79 | 30.5 | 25.5 | 5.54 | 2.18 |  |  |  |  |  |  |  |  |  | 
COc1cc(C(=O)Oc2c(C(C)=O)sc3c2c(=O)n(-c2ccccc2)c(=S)n3-c2ccccc2)cc(OC)c1OC | 25.9 | 40.8 | 76.5 | 32.9 | 41.6 | 4.53 | 29.8 | 32.5 | 32.8 | 49.7 |  |  |  |  |  |  |  |  |  | 
